Like-named read-outs stand apart in the source and are kept apart here. Marks after values point to notes of the source that are not given here.
Key:
[1] = test system: human monocyte-macrophages (HMMs); assay: MTT toxicity assay, HMMs, seven days (Example 3); assay type: cell-based; settings: 7 days; for Cell viability by MTT, percent of control: mean of three experiments
Method: A similar set of toxicity experiments was performed with human monocyte-macrophages (HMMs).

[2] = test system: bovine vascular smooth muscle cells (bVSMCs); assay: MTT cell viability assay, bVSMCs with or without GAD medium, 7 or 9 days (Example 5); assay type: cell-based
Method: As above, cells were treated either with medium only (“no-additions”; NA)+/−inhibitors, or with the GAD-medium+/−inhibitors. […] Additionally, an MTT assay was performed as a measure of cell viability/proliferation. Bovine VSMCs were seeded in 96 well plates and cultured in M199/20% FCS for 1 day. Then, the cells were incubated with inhibitor concentrations of 10 μM, 1 μM and 0.1 μM (in M199 medium+5% FBS). […] Then, the MTT assay was performed.

[3] = test system: bovine vascular smooth muscle cells (bVSMCs); assay: o-Cresolphthalein Ca2+ assay, bVSMC GAD calcification model (Examples 4 and 5); assay type: cell-based
Method: (§1) For the bVSMCs a GAD medium (10 mM β-glycerophosphate/0.1 mM L-ascorbic acid-2-phosphate/10 nM dexamethasone) model was used to induce mineralization in bVSMCs. Accordingly, cells were seeded in tissue culture plates using M199/20% FCS culture medium and cultured overnight. The next day, cells were treated either with medium only (M199/5% FBS)+/−inhibitors, or with the GAD-medium (10 mM β-glycerophosphate/0.1 mM L-ascorbic acid-2-phosphate/[…] dexamethasone)+/−inhibitors.
Medium+/−inhibitors was exchanged every 2-3 days. […]
The o-Cresolphthalein assay is a spectrophotometric method for measuring Ca^2+-concentrations in cell/tissue lysates. Following the calcification experiments, cells are briefly washed to remove medium and 100 […]1 of 0.1 N HCl is added to each well to dissolve any mineral deposits. Then, the Ca^2+-concentration of the samples is measured spectrophotometrically (at 570 nm) in the o-cresolphthalein assay with the help of a CaCl2 standard curve in a concentration range of ˜0.02-270 µg Ca^2+/ml.
The commercial BioRad DC protein assay is based on the Lowry method, aka reaction of proteins with a copper-tartrate complex and subsequent reaction with Folin's reagent. Following the calcification experiment, cells are briefly washed to remove medium and 100 µl of solubilisation solution (0.1 M NaOH/1% SDS/DIW) is added to each well to lyse the cells. The protein concentrations of the lysates are subsequently determined in the BioRad DC assay as per supplier's instructions using BSA (bovine serum albumin) as standard.
The in vitro model is the same as the model used in example 4; bovine vascular smooth muscle cells (bVSMCs) cultured so that they produce extracellular matrix, with the addition of the GAD medium (10 mM β-glycerophosphate/0.1 mM L-ascorbic acid-2-phosphate/10 nM dexamethasone).
As above, cells were treated either with medium only (“no-additions”; NA)+/−inhibitors, or with the GAD-medium+/−inhibitors. The inhibitors used were PJ34 and minocyclin (MC) at 10 μM, 1 μM and 0.1 μM.
The methodology was the same as that described in example 4.

[4] = test system: bovine vascular smooth muscle cells (bVSMCs); assay: Alizarin Red S staining, bVSMC GAD calcification model (Example 4); assay type: cell-based; settings: GAD-treated bVSMCs, 10 μM, 7 d, versus no inhibitor
Method: as §1
Medium+/−inhibitors was exchanged every 2-3 days. Bovine VSMCs were incubated for 7 d prior to assessment.
The Alizarin Red S staining is a visual/histological stain for tissue calcium deposits. Cells are briefly fixed in 4% paraformaldehyde/PIPES buffer pH 7.2 and subsequently stained for 5 min with Alizarin Red S (2% Alizarin Red S/DIW pH 4.2). Excess stain is removed by washing in DIW. Calcium mineral deposits are stained a bright orange red.

[5] = test system: PARP produced by a mammalian cell; settings: have been shown; cited from earlier work
[6] = test system: bovine vascular smooth muscle cells (bVSMCs); assay type: cell-based; settings: 7 days; for Cell viability of bVSMCs after seven days (MTT signal, relative to control): mean of three experiments
Method: The toxicity of the identified compounds to bovine VSMCs was measured using the MTT assay, which measures the activity of dehydrogenase enzymes of live cells. This assay can pick up both cell death and proliferation.
Bovine VSMCs were seeded in 96 well plates and cultured in M199/20% FCS for 1 day. Then, the cells were incubated with inhibitor concentrations from 0.5 to 100 μM (in M199 medium+5% FBS). The cells were incubated with the inhibitors for 7 days; every 2-3 days the medium −/+inhibitors was exchanged. Then, the MTT assay was performed. The stock vehicle DMSO was tested at corresponding concentrations to the inhibitors at 0.1% DMSO or less.

[7] = test system: human vascular smooth muscle cells (hVSMCs); assay: o-Cresolphthalein Ca2+ assay, hVSMC Ca/P calcification model (Examples 7-9); assay type: cell-based; settings: hVSMCs, 6 days; PJ34 10 μM; minocycline and cilostazol 0.5, 1 and 2 μM
Method: Primary hVSMCs were cultured in M199 media containing FBS (M199/5% FBS). They were plated at a known cell density, allowed to grow for 24 hours and then treated with control (DMSO only) or calcification media (DMSO containing 2.7 mM Calcium+2.5 mM phosphate)+/−inhibitors. After 6 days, calcification was assessed using the o-Cresolphthalein assay for quantification of Ca^2+ deposition and a BioRad protein assay for protein content.
Medium+/−inhibitors was exchanged every 2-3 days.
Primary hVSMCs were cultured in M199 media containing FBS (M199/5% FBS). They were plated at a known cell density, allowed to grow for 24 hours and then treated with control (DMSO only) or calcification media (DMSO containing 2.7 mM Calcium+2.5 mM phosphate)+/−inhibitors. After 8 days, calcification was assessed using o-Cresolphthalein assay for quantification of Ca^2+ deposition and a BioRad protein assay for protein content.
All of the compounds tested were used at a concentration of 3 μM. Medium+/−inhibitors was exchanged every 2-3 days.
Primary hVSMCs were cultured in M199 media containing FBS (M199/5% FBS). They were plated at a known cell density, allowed to grow for 24 hours and then treated with control (DMSO only) or calcification media (DMSO containing 2.7 mM Calcium+2.5 mM phosphate)+/−compounds. After 8 days, calcification was assessed using o-Cresolphthalein assay for quantification of Ca^2+ deposition and a BioRad protein assay for protein content.
These concentrations were chosen to mimic the systemic concentrations of these drugs following patient dosing according to the dose schedule in the prescribing information for each drug. Medium+/−inhibitors was exchanged every 2-3 days.

CN(C)CC(=O)Nc1ccc2[nH]c(=O)c3ccccc3c2c1.Cl [PJ34, N-(6-Oxo-5,6-dihydrophenanthridin-2-yl)-(N,N-dimethylamino)acetamide hydrochloride]
Cell viability by MTT, percent of control ([1]; 0.5 uM): 106.63
Cell viability by MTT, percent of control ([1]; 1 uM): 88.38
Cell viability by MTT, percent of control ([1]; 2 uM): 84.08
Cell viability by MTT, percent of control ([1]; 5 uM): 95.65
Cell viability by MTT, percent of control ([1]; 10 uM): 77.14
Cell viability by MTT, percent of control ([1]; 20 uM): 74.86
Cell viability by MTT, percent of control ([1]; 50 uM): 60.33*
Cell viability by MTT, percent of control ([1]; 100 uM): 37.30*
Toxicity to HMMs (in words) ([1]; at a concentration of 100 μM): most toxic
Cell viability (%) mean ([2]; nine days, no GAD, 0.1 μM): 99.88%
Cell viability (%) mean ([2]; nine days, no GAD, 1 μM): 97.1%
Cell viability (%) mean ([2]; nine days, no GAD, 10 μM): 98.3%
Cell viability (%) mean ([2]; nine days, with GAD, 0.1 μM): 69.43%
Cell viability (%) mean ([2]; nine days, with GAD, 1 μM): 59.06%
Cell viability (%) mean ([2]; nine days, with GAD, 10 μM): 69.43%
Cell viability (%) mean ([2]; seven days, no GAD, 0.1 μM): 93.81%
Cell viability (%) mean ([2]; seven days, no GAD, 1 μM): 97.16%
Cell viability (%) mean ([2]; seven days, no GAD, 10 μM): 99.25%
Cell viability (%) mean ([2]; seven days, with GAD, 0.1 μM): 96.46%
Cell viability (%) mean ([2]; seven days, with GAD, 1 μM): 94.61%
Cell viability (%) mean ([2]; seven days, with GAD, 10 μM): 90.03%
Calcium levels (mass of calcium, FIG. 7B) compared to no inhibitors ([3]; GAD-treated bVSMCs, 10 μM, 7 d): elevate calcium levels
Normalised calcium levels (mass of calcium per mass of protein, FIG. 9B) ([3]; GAD-treated bVSMCs, 10 μM, 7 d): elevate calcium levels
Effect on calcification (in words, discussion of Example 5) ([3]; bVSMC GAD model): encouraging calcification
Ca^2+ concentration found in bVSMCs, mean ([3]; nine days, no GAD, 0.1 μM): 1.438 μg calcium/ml
Ca^2+ concentration found in bVSMCs, mean ([3]; nine days, no GAD, 1 μM): 1.179 μg calcium/ml
Ca^2+ concentration found in bVSMCs, mean ([3]; nine days, no GAD, 10 μM): 1.061 μg calcium/ml
Ca^2+ concentration found in bVSMCs, mean ([3]; nine days, with GAD, 0.1 μM): 22.69 μg calcium/ml
Ca^2+ concentration found in bVSMCs, mean ([3]; nine days, with GAD, 1 μM): 132.87 μg calcium/ml
Ca^2+ concentration found in bVSMCs, mean ([3]; nine days, with GAD, 10 μM): 66.68 μg calcium/ml
Ca^2+ concentration found in bVSMCs, mean ([3]; seven days, no GAD, 0.1 μM): 0.612 μg calcium/ml
Ca^2+ concentration found in bVSMCs, mean ([3]; seven days, no GAD, 1 μM): 0.565 μg calcium/ml
Ca^2+ concentration found in bVSMCs, mean ([3]; seven days, no GAD, 10 μM): 0.561 μg calcium/ml
Ca^2+ concentration found in bVSMCs, mean ([3]; seven days, with GAD, 0.1 μM): 1.84 μg calcium/ml
Ca^2+ concentration found in bVSMCs, mean ([3]; seven days, with GAD, 1 μM): 4.06 μg calcium/ml
Ca^2+ concentration found in bVSMCs, mean ([3]; seven days, with GAD, 10 μM): 4.93 μg calcium/ml
Degree of mineralization judged by eye (Alizarin Red S, FIG. 6) [4]: slightly worse
Inhibition of PARP produced by a mammalian cell [5]: inhibit PARP
Cell viability of bVSMCs after seven days (MTT signal, relative to control) ([6]; 0.5 uM): 102.59
Cell viability of bVSMCs after seven days (MTT signal, relative to control) ([6]; 1 uM): 98.89
Cell viability of bVSMCs after seven days (MTT signal, relative to control) ([6]; 2 uM): 92.33
Cell viability of bVSMCs after seven days (MTT signal, relative to control) ([6]; 5 uM): 95.74
Cell viability of bVSMCs after seven days (MTT signal, relative to control) ([6]; 10 uM): 97.07
Cell viability of bVSMCs after seven days (MTT signal, relative to control) ([6]; 20 uM): 99.71
Cell viability of bVSMCs after seven days (MTT signal, relative to control) ([6]; 50 uM): 80.83*
Cell viability of bVSMCs after seven days (MTT signal, relative to control) ([6]; 100 uM): 53.72*
Toxicity to bVSMCs (MTT assay, in words) ([6]; at 50 and 100 μM): toxic
Cell death in bVSMCs (FIG. 4A and example 2) ([6]; bVSMCs): induce some cell death
Calcium levels (mass of calcium, FIG. 17) versus DMSO Ca+P positive control [7]: reduce the calcium levels
Normalised calcium levels (mass of calcium per mass of protein, FIG. 19) [7]: lower calcium levels significantly

From patent publication US10159685B2, “Vascular calcification” (Cambridge Enterprise Limited, priority 2016, dated 2018)
